# Measurements reported in patent US20210300909A1, “IMMUNOMODULATORS, COMPOSITIONS AND METHODS THEREOF” (BETTA PHARMACEUTICALS CO., LTD, priority 2018, published 2021).
# Molecular target: T1, PD-1/PD-L1 protein/protein interaction (Homo sapiens, UniProt Q9NZQ7)
# T1 construct: Recombinant human PD-L1 protein (19-238) with a His-tag at the C-terminus; purchased AcroBiosystems PD1-H5229 (PD-L1); PD1-H5257 (PD-1)
# Assay: PD-1/PD-L1 homogenous time-resolved fluorescence (HTRF) binding assay
# Details: not given
# Description: Resolved Fluorescence (HTRF) Binding Assay
# The assays were conducted in a standard black 384-well polystyrene plate with a final volume of 20 μL. Inhibitors were first serially diluted in DMSO and then added to the plate wells before the addition of other reaction components. The final concentration of DMSO in the assay was 1%. The assays were carried out at 25° C. in the PBS buffer (pH 7.4) with 0.05% Tween-20 and 0.1% BSA. […] Plates were centrifuged and proteins were preincubated with inhibitors for 40 min. The incubation was followed by the addition of 10 μL of HTRF detection buffer supplemented with Europium cryptate-labeled anti-human IgG (PerkinElmer-AD0212) specific for Fc and anti-His antibody conjugated to SureLight®-Allophycocyanin (APC, PerkinElmer-AD0059H). After centrifugation, the plate was incubated at 25° C. for 60 min. […] Final concentrations in the assay were […], 10 nM PD-L1, nM europium anti-human IgG and 20 nM anti-His-Allophycocyanin. IC50 determination was performed by fitting the curve of percent control activity versus the log of the inhibitor concentration using the GraphPad Prism 5.0 software.
# T1 sequence (Q9NZQ7 19-238): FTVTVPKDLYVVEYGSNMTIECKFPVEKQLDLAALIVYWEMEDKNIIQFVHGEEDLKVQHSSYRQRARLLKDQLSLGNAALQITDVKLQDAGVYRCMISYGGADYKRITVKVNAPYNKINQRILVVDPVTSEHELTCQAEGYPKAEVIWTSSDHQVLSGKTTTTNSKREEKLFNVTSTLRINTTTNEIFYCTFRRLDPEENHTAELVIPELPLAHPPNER
row,SMILES,IC50
1,"COc1cc2oc(-c3cccc(-c4cccc(OCCCN(C)CCCCO)c4C)c3C)nc2cc1CN1CCCCC1C(=O)O (centres unmarked) [Compound 29, 1-((2-(3′-(3-((4-hydroxybutyl)(methyl)amino)propoxy)-2,2′-dimethyl-[1,1′-biphenyl]-3-yl)-6-methoxybenzo[d]oxazol-5-yl)methyl)piperidine-2-carboxylic acid]",< 25 nM
2,"COc1cc2c(cc1CN1CCC(F)(F)CC1C(=O)O)nc(-c1cccc(-c3cccc(OCCCN4CCOCC4)c3)c1C)n2C (centres unmarked) [Compound 15, 4,4-difluoro-1-((6-methoxy-1-methyl-2-(2-methyl-3′-(3-morpholinopropoxy)-[1,1′-biphenyl]-3-yl)-1H-benzo[d]imidazol-5-yl)methyl)piperidine-2-carboxylic acid]",25 to 150 nM
3,"CCCNC(=O)NCCN(C)CCCOc1cccc(-c2cccc(-c3nc4cc(CN5CCCCC5C(=O)O)c(OC)cc4o3)c2C)c1C (centres unmarked) [Compound 32, 1-((2-(2,2′-dimethyl-3′-(3-(methyl(2-(3-propylureido)ethyl)amino)propoxy)-[1,1′-biphenyl]-3-yl)-6-methoxybenzo[d]oxazol-5-yl)methyl)piperidine-2-carboxylic acid]",< 25 nM
4,"COc1cc2oc(-c3cccc(-c4cccc(OCCCN(C)C)c4C)c3C)nc2cc1CN1CCCCC1C(=O)O (centres unmarked) [Compound 30, 1-((2-(3′-(3-(dimethylamino)propoxy)-2,2′-dimethyl-[1,1′-biphenyl]-3-yl)-6-methoxybenzo[d]oxazol-5-yl)methyl)piperidine-2-carboxylic acid]",< 25 nM
5,"COc1cc2oc(-c3cccc(-c4cccc(NC(=O)NCCNCCO)c4)c3C)nc2cc1CN1CCCCC1C(=O)O (centres unmarked) [Compound 5, 1-((2-(3′-(3-(2-((2-hydroxyethyl)amino)ethyl)ureido)-2-methyl-[1,1′-biphenyl]-3-yl)-6-methoxybenzo[d]oxazol-5-yl)methyl)piperidine-2-carboxylic acid]",25 to 150 nM

# Results, then the compound that gave them:
row,IC50,SMILES
1,1 nM,"COc1cc2oc(-c3cccc(-c4cccc(OCCCN5CCOCC5)c4C)c3C)nc2cc1CN1CCCCC1C(=O)O (centres unmarked) [Compound 3, 1-((2-(2,2′-dimethyl-3′-(3-morpholinopropoxy)-[1,1′-biphenyl]-3-yl)-6-methoxybenzo[d]oxazol-5-yl)methyl)piperidine-2-carboxylic acid]"
2,< 25 nM,"COc1cc2oc(-c3cccc(-c4cccc(CCCN5CCOCC5)c4)c3C)nc2cc1CN1CCCCC1C(=O)O (centres unmarked) [Compound 4, 1-((6-methoxy-2-(2-methyl-3′-(3-morpholinopropyl)-[1,1′-biphenyl]-3-yl)benzo[d]oxazol-5-yl)methyl)piperidine-2-carboxylic acid]"
3,< 25 nM,"COc1cc2oc(-c3cccc(-c4cccc(OCCCN5CCOCC5)c4C#N)c3C)nc2cc1CN1CCOCC1C(=O)O (centres unmarked) [Compound 18, 4-((2-(2′-cyano-2-methyl-3′-(3-morpholinopropoxy)-[1,1′-biphenyl]-3-yl)-6-methoxybenzo[d]oxazol-5-yl)methyl)morpholine-3-carboxylic acid]"
4,< 25 nM,"COc1cc2oc(-c3cccc(-c4cccc(NC(=O)CCN5CCOCC5)c4C)c3C)nc2cc1CN1CCCCC1C(=O)O (centres unmarked) [Compound 8, 1-((2-(2,2′-dimethyl-3′-(3-morpholinopropanamido)-[1,1′-biphenyl]-3-yl)-6-methoxybenzo[d]oxazol-5-yl)methyl)piperidine-2-carboxylic acid]"
5,< 25 nM,"COc1cc2oc(-c3cccc(-c4cccc5c4CCN5C(=O)CCN4CCOCC4)c3C)nc2cc1CN1CCOCC1C(=O)O (centres unmarked) [Compound 38, 4-((6-methoxy-2-(2-methyl-3-(1-(3-morpholinopropanoyl)indolin-4-yl)phenyl)benzo[d]oxazol-5-yl)methyl)morpholine-3-carboxylic acid]"

# Same assay, conditions: HTRF, recombinant human PD-1 (Fc tag) / PD-L1 (His-tag), 25° C., PBS pH 7.4; class symbols; read-out: IC50
row,SMILES,IC50
1,"COc1cc2oc(-c3cccc(-c4cccc(OCCCN5CCOCC5)c4)c3C)nc2cc1CNCCO [Compound 1, 2-(((6-methoxy-2-(2-methyl-3′-(3-morpholinopropoxy)-[1,1′-biphenyl]-3-yl)benzo[d]oxazol-5-yl)methyl)amino)ethan-1-ol]",< 25 nM
2,"COc1cc2oc(-c3cccc(-c4cccc(OCCCN5CCOCC5)c4)c3C)nc2cc1CN(C)CC(=O)O [Compound 19, N-((6-methoxy-2-(2-methyl-3′-(3-morpholinopropoxy)-[1,1′-biphenyl]-3-yl)benzo[d]oxazol-5-yl)methyl)-N-methylglycine]",25 to 150 nM

# Further lines, results first:
row,IC50,SMILES
1,25 to 150 nM,"COc1cc2oc(-c3cccc(-c4ccc(Cl)c(OCCCN5CCOCC5)c4)c3C)nc2cc1CN1CCCCC1C(=O)O (centres unmarked) [Compound 11, 1-((2-(4′-chloro-2-methyl-3′-(3-morpholinopropoxy)-[1,1′-biphenyl]-3-yl)-6-methoxybenzo[d]oxazol-5-yl)methyl)piperidine-2-carboxylic acid]"
2,> 150 nM,"COc1cc2oc(-c3cccc(-c4cccc5c4CCN5C(=O)CN4CCOCC4)c3C)nc2cc1CN1CCCCC1C(=O)O (centres unmarked) [Compound 40, 1-((6-methoxy-2-(2-methyl-3-(1-(2-morpholinoacetyl)indolin-4-yl)phenyl)benzo[d]oxazol-5-yl)methyl)piperidine-2-carboxylic acid]"
